Measurements taken from patent publication US9345711B2, “Methods for acute and long-term treatment of drug addiction” (DemeRx, Inc., priority 2014, dated 2016).
Entries after “also recorded” stand apart in the source; their conditions may differ.

Experiments:
[1] = Pharmacokinetics of noribogaine in healthy volunteers after single oral dose (plasma, LCMSMS)
[2] = Pupillometry (pupillary miosis) in healthy volunteers; format: in vivo, human
Method: (§1) Pulse oximetry and capnography data were collected continuously using a GE Carescape B650 monitoring system from 2 hours prior to dosing and until six hours after dosing, and thereafter at 12, 24, 48 and 72 hours post-dosing. […] Pupillary miosis was assessed by pupillometry.

[3] = Cold pressor test (analgesic effect) in healthy volunteers; format: in vivo, human
Method: Analgesic effect was assessed based on duration of hand immersion in ice water and on visual analog scale (VAS) pain scores upon hand removal from the water bath.
(§2) Safety and tolerability of noribogaine were tested in the group of volunteers from Example 1. […] Safety evaluations included clinical monitoring, recording of adverse events (AEs), safety laboratory tests, vital signs, ECG telemetry from −2 h to 6 h after dosing, and 12-lead electrocardiograms (ECGs) up to 216 hours post-dosing.

[4] = Safety and tolerability of noribogaine in healthy volunteers (adverse events, vital signs, ECG); format: in vivo, human
Method: as §1, §2

[5] = Efficacy of noribogaine in opioid-dependent participants: time to resumption of opioid substitution treatment; format: in vivo, human; settings: for average time to resumption of opioids: single oral dose
Method: (§3) The efficacy of noribogaine in humans was evaluated in opioid-dependent participants in a randomized, placebo-controlled, double-blind trial. […] See U.S. Provisional Application Ser. No. 61/852,485, filed Mar. 15, 2013, which is incorporated herein by reference in its entirety.
(§4) In the first cohort, six patients were orally administered a single dose of 60 mg noribogaine, and three patients received placebo. In the second cohort, five patients were orally administered a single dose of 120 mg noribogaine, and three patients received placebo.
FIG. 3 indicates the serum noribogaine concentration over time. Serum concentrations for 120 mg dose (black squares) are estimated based on data from the 60 mg dose (gray diamonds).

[6] = Safety and QT interval in opioid-dependent participants; format: in vivo, human; settings: for Mean prolongation of the QT interval: opioid-dependent patients
Method: as §3, §4

[7] = plasma glucuronide after single oral 30 mg noribogaine, healthy volunteers, mean (SD), n = 6
[8] = plasma glucuronide after single oral 60 mg noribogaine, healthy volunteers, mean (SD), n = 6
[9] = after adjusting for baseline differences, p>0.9
[10] = 3 mg dose group, healthy volunteers
[11] = opioid-dependent participants, single oral 60 mg or 120 mg
[12] = across dose groups (3-60 mg), healthy volunteers

SMILES: CC[C@H]1C[C@@H]2C[C@H]3c4[nH]c5ccc(OC6OC(C(=O)O)C(O)C(O)C6O)cc5c4CCN(C2)[C@@H]13 (stereo partly drawn) [Noribogaine glucuronide]
- AUC0-216 of noribogaine glucuronide [1, 7]: 25.7 (9.1) ng · hr/ml
- AUC0-∞ of noribogaine glucuronide [1, 7]: 25.8 (9.3) ng · hr/ml
- Cmax of noribogaine glucuronide [1, 7]: 1.8 (0.6) ng/ml
- Tmax of noribogaine glucuronide [1, 7]: 3.0 (0.6) hr
- t1/2 of noribogaine glucuronide [1, 7]: 20.6 (4.9) hr
- AUC0-216 of noribogaine glucuronide [1, 8]: 65.0 (21.5) ng · hr/ml
- AUC0-∞ of noribogaine glucuronide [1, 8]: 67.1 (21.9) ng · hr/ml
- Cmax of noribogaine glucuronide [1, 8]: 4.1 (1.2) ng/ml
- Tmax of noribogaine glucuronide [1, 8]: 3.8 (1.2) hr
- t1/2 of noribogaine glucuronide [1, 8]: 23.1 (3.0) hr
- time of peak glucuronide concentrations after noribogaine dosing ([1]; plasma, 30 mg and 60 mg noribogaine dose groups): 3 to 4 h

SMILES: CC[C@H]1CC2C[C@H]3c4[nH]c5ccc(O)cc5c4CCN(C2)C13 [Noribogaine]
- pupil diameter, each dose group vs placebo (ANOVA) [2, 9]: no statistically significant differences
- pupillary constriction ([2]; healthy volunteers, 3-60 mg single oral dose): no evidence of pupillary constriction
- VAS pain scores, each dose group vs placebo (ANOVA) ([3]; after adjusting for baseline differences, p=0.17): no statistically significant differences
- duration of hand immersion, each dose group vs placebo (ANOVA) [3, 9]: no statistically significant differences
- analgesic effect in the cold pressor test ([3]; healthy volunteers, 3-60 mg single oral dose, 1° C. water): no analgesic effect
- adverse events, Mild [4, 10]: Dizziness; also recorded: Epistaxis; also recorded: Headache; also recorded: Back pain
- adverse events, Moderate [4, 10]: Headache
- number of adverse events reported ([4]; 3 mg dose group, two subjects): five adverse events
- adverse events, Mild ([4]; 10 mg dose group, healthy volunteers): Headache
- number of adverse events reported ([4]; 10 mg dose group, single subject): one adverse event
- adverse events, Mild ([4]; 30 mg dose group, healthy volunteers): Headache
- number of adverse events reported ([4]; 30 mg dose group, single subject): one adverse event
- intensity of adverse events ([4]; all dose groups, all resolved prior to study completion): mild-moderate intensity
- changes in oximetry, capnography or respiratory rate ([4]; healthy volunteers, 3-60 mg): no changes in oximetry or capnography, or changes in respiratory rate
- changes in vital signs or safety laboratory tests ([4]; healthy volunteers, 3-60 mg): no changes in vital signs or safety laboratory tests of note
- average time to resumption of opioids ([5]; first cohort, blinded: 60 mg noribogaine (6 patients) or placebo (3 patients)): approximately 8.7 hours
- time to resumption of opioids longer than reported for untreated patients in a similar study ([5]; first cohort, blinded: 60 mg noribogaine or placebo): ~2 h
- average time to resumption of OST ([5]; five presumed noribogaine-treated patients of second cohort (imputed, 120 mg), placebo construed from no QT prolongation): approximately 26.8 hours
- impact on withdrawal symptoms in addicted patients ([5]; lower dosing of noribogaine, human clinical studies (summary statement)): minimal impact on withdrawal symptoms
- average time to resumption of opioids ([5]; second cohort, blinded: 120 mg noribogaine (5 patients) or placebo (3 patients)): approximately 23 hours
- Mean prolongation of the QT interval ([6]; first cohort (60 mg noribogaine or placebo)): less than 10 ms
- adverse effects [6, 11]: No adverse effects
- hallucinatory effects [6, 11]: no hallucinatory effects
- Mean prolongation of the QT interval ([6]; second cohort (120 mg noribogaine or placebo)): less than 40 ms
- prolongation of the treated patient's QT interval ([6]; summary statement, increases in opioid addicted patients compared to healthy individuals): dose dependent prolongation
- dose-proportionality of Cmax and AUC ([1]; 3-60 mg single oral doses, linear regression): increased linearly with dose
- Mean half-life estimates [1, 12]: 28 to 50 h
- Volume of distribution [1, 12]: 1417 to 3086 L
- CL/F ([1]; healthy male volunteers, single oral 3 mg noribogaine, mean (SD), n = 6): 41.4 (7.0) L/h
- CL/F ([1]; healthy male volunteers, single oral 10 mg noribogaine, mean (SD), n = 6): 42.3 (12.0) L/h
- CL/F ([1]; healthy male volunteers, single oral 30 mg noribogaine, mean (SD), n = 6): 46.9 (16.4) L/h
- Tmax ([1]; healthy male volunteers, single oral 30 mg noribogaine, plasma, mean (SD), n = 6): 1.8 (0.6) hr
- CL/F ([1]; healthy male volunteers, single oral 60 mg noribogaine, mean (SD), n = 6): 34.0 (11.4) L/h
- time of peak concentrations after oral dosing ([1]; healthy volunteers, 3-60 mg dose groups): 2 to 3 h
